Like-named read-outs stand apart in the source and are kept apart here.
Experiments:
[1] = Pharmacokinetic test in SD rats; type: in vivo; settings: male, Sprague-Dawley, rat, plasma, PO, 20 mg/kg
Protocol: Six SD rats were taken, which were all male, and about 8-9 weeks old, weighing about 430 g/rat, and fasting but allowed to drink water for 18 hours.
The rats were divided into two groups, wherein the rats in group 1 were dosed with compound 2 and the rats in group 2 were dosed with control compound 4, both orally and intragastrically in a dose of 20 mg/kg. A lavage fluid was prepared using 70 mM citric acid buffer (pH 3.0) at an administration volume of 5 mL/kg.
0.6 mL of blood (EDTA-2K anti-coagulated) was collected from rat orbits at 0.5, 1.5, 3, 4.5, 8, 12, 24, 36, 48 and 72 hours after the administration respectively. The plasma was separated and stored at −70° C., and the plasma samples were analyzed using liquid chromatography tandem mass spectrometry (LC-MS/MS). The plasma concentration-time data of the individual rates was analyzed using a non-compartmental model of DAS3.3.1 software and pharmacokinetic parameters of the test compounds were calculated.

[2] = system: BaF3 EML-4-ALK-L1196M cell line; assay: Cell anti-proliferation test 4 (CCK-8), BaF3 EML-4-ALK-L1196M; type: cell-based; settings: Ba/F3 EML4-ALK-L1196M, BaF3 EML-4-ALK-L1196M cells, CCK-8, 72 hours
Protocol: BaF3 EML-4-ALK-L1196M cell line, brand: KYinno, article number: KC-0102
Cell Counting Kit-8 (CCK-8), brand: Targetmol, article number: C0005
10 μL of the compound diluted in gradient was added to the cell plate to give final concentrations of the compounds as 500, 166.67, 55.56, 18.52, 6.17, 2.06, 0.69, 0.23 and 0.08 nM. • d.

SMILES: CCc1cc(Nc2ncc(Br)c(Nc3ccc(C4CC4)cc3P(C)(C)=O)n2)c(OC)cc1N1CCC(N2CCN(C)CC2)CC1 [Control compound 4, reference compound]
- AUC(0-t) [1]: 58500 ng·h/mL
- Cmax [1]: 1420 ng/mL
- IC50 ([2]; first test, read-out: First test IC50): 81.5 nM
- IC50 ([2]; second test, read-out: Second test IC50): 74.6 nM

Source: patent publication US20230322822A1, “ARYL PHOSPHOROUS OXIDE COMPOUNDS AND USE THEREOF” (Chengdu Di'ao Jiuhong Pharmaceutical Factory, priority 2020, published 2023)
